Legend:
[1] = biological target: T1, acyl-CoA: cholesterol acyltransferase (ACAT) (Rattus norvegicus, UniProt Q7TQM4); assay: Inhibition of Acyl-CoA: Cholesterol Acyltransferase (ACAT) in hepatic microsomes (in vitro hepatic ACAT activity); assay type: biochemical, rat (male Sprague Dawley); details: 14C-oleoyl-CoA, 15 min preincubation at 37° C., pH 7.4, read-out: Inhibition of Cholesterol Esterification (IC50)
T1 construct: Microsomes were obtained by differential centrifugation; from tissue; host or cells: liver microsomes of male Sprague Dawley rats
T1 sequence (Q7TQM4 1-524): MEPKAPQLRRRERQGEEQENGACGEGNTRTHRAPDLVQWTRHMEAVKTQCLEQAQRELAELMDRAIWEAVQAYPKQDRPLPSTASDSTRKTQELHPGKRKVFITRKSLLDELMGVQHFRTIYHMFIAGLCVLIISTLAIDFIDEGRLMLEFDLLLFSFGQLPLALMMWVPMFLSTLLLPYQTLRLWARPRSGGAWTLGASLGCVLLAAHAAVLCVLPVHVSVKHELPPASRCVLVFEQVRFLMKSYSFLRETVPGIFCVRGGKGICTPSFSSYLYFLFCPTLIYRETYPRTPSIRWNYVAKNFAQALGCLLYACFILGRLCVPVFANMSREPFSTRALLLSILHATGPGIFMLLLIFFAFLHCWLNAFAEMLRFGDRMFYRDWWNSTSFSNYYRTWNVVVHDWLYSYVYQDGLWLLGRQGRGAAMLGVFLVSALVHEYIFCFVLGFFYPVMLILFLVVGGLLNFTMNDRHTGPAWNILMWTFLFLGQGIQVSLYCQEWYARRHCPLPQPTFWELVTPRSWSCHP
Protocol: The ability of the compounds to inhibit ACAT, the enzyme responsible for the intracellular synthesis of cholesteryl esters, was tested as follows. Male Sprague Dawley rats weighing 150-300 g, were fed rat chow ad libitum. The animals were fasted for twenty-four hours prior to being sacrificed by decapitation. The livers were perfused in situ with 50 ml of cold 0.25M sucrose, excised, and homogenized in three volumes of 0.1M phosphate buffer, pH 7.4, that contained 0.5 mM EDTA (ethylenediaminetetraacetic acid), 1.0 mM glutathione, 0.25M sucrose and […]. Microsomes were obtained by differential centrifugation; the supernatant from an initial spin at 15,000×g for 15 minutes was centrifuged at 105,000×g for 1 hour to pellet the microsomes. The microsomes were suspended in homogenization buffer, reisolated by centrifugation, and stored at -70° C. Microsomes were used within one month of preparation.
The control assay in a final volume of 200 μl consisted of 200 μg of microsomal protein, 75μ<^14 C-oleoyl-CoA (10,000 dpm/nmol) in 0.1M phosphate, pH 7.4, that contained 1 mM glutathione. Compounds were added in 5 μl of DMSO (dimethyl sulfoxide) and additional controls were run with DMSO only. All components, except the oleoyl-CoA, were preincubated for 15 min. at 37° C. prior to the initiation of the reaction by the addition of oleoyl-CoA. The assay was terminated after 10 min. by the addition of 4 ml of chloroform:methanol (2:1, v/v). 20,000 dpm of 3H-choledsteryl oleate and 10 μg of unlabeled cholesteryl oleate and oleic acid were added as an internal standard and carriers, respectively. After allowing 10 min. for lipid extraction, 0.8 ml of deionized water was added to separte the solution into two phases. The lower chloroform phase was collected, dried under nitrogen and resuspended in 2 ml of hexane:diethyl ether (97:3 v/v). The lipids were then loaded onto BAKERSBOND spe* silica gel columns. Extracts were collected in scintillation vials and counted for radioactivity. The specific activity of ACAT in the control incubation averaged 260 pmol/min/mg microsomal protein.

ACAT = biological target: T2, ACAT (Mus musculus, UniProt Q61263); assay: Inhibition of cholesterol esterification in the murine macrophage-like cell line J774.A1; assay type: cell-based; details: J774.A1 cells, ac-LDL loaded, 14C-oleic acid pulse
T2 construct: endogenous in cells; host or cells: J774.A1 (murine macrophage-like)
T2 sequence (Q61263 1-540): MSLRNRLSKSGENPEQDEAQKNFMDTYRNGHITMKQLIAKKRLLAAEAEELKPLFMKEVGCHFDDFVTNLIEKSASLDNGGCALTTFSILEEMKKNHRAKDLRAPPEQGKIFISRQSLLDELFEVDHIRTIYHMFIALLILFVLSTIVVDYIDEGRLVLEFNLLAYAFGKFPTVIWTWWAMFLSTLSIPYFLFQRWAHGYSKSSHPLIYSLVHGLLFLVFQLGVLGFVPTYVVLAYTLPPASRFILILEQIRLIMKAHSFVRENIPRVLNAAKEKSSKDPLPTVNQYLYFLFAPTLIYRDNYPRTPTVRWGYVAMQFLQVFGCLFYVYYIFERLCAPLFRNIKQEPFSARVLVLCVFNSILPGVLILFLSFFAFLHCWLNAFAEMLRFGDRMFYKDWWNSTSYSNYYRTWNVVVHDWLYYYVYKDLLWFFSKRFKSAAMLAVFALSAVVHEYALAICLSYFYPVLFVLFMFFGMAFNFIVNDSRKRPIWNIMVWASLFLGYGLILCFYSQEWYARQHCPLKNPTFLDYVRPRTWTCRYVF
Protocol: The esterification of cholesterol was determined in the murine macrophage-like cell line J774.A1. Cells were seeded in 35 mm wells at a density of 300,000 cells per well in 2 mls of Dulbecco's Eagle Medium (DMEM) supplemented with 10% fetal bovine serum (FBS). Cells were incubated at 37° C. in an atmosphere of 5% CO2 and 93% humidity. After […] the media was changed to 0.68 mls 10% FBS-DMEM containing 34 μg of acetylated human low density lipoprotein (ac-LDL) to increase the intracellular concentration of cholesterol and promote esterification. At 41 hours, various inhibitors were added to the cells in DMSO (10 μl/ml maximum). At 43 hours, the cells were pulsed with 0.1 mM ^14 C-oleic acid (10,000 dpm/nmol) complexed with BSA (bovine serum albumin) to follow cholesterol ester formation. The experiment was terminated at 45 hours by washing the monolayers 3 times with 3 ml of Tris-buffered saline at 4° C. The lipids were extracted by incubating the monolayers with 1.5 ml of hexane: isopropanol (3:2, v/v) for 30 min. under gentle agitation. During this period, 10,000 dpm ^3 H-cholesterol oleate and 10 μg of unlabeled cholesteryl oleate, oleic acid, triolein and cholesterol were added as an […] standard and carriers. The organic solvent was removed and the cells were washed with an additional 1.0 ml of hexane: isopropanol which was combined with the original extract. The cells were allowed to dry overnight, digested with 2.0 ml of 0.2N sodium hydroxide for 1 hour and an aliquot of the solubilized protein used for protein determination using the Lowry method. […] Extracts were collected in scintillation vials to determine the amount of radioactivity. The conversion of oleic acid to cholesteryl ester in the control averaged 0.54 mmol/hour/mg protein and was increased upon the addition of ac-LDL to about 10.689±0.69 mmol/hour/mg protein.

IC50 [1] [nM]	IC50 (ACAT) [nM]	SMILES
66	880	O=C(Nc1ccc(F)cc1F)N(CCCCCSc1nc(-c2ccccc2)c(-c2ccccc2)[nH]1)CCN1CCOCC1 [Example 161, N'-(2,4-difluorophenyl)-N-[5-(4,5-diphenyl-1H-imidazol-2-ylthio)pentyl]-N-[2-(4-morpholinyl)ethyl]-urea]
480	2420	COc1ccc(-c2nc(SCCCCCN(CCOCCO)C(=O)NC(C)C)[nH]c2-c2ccc(OC)cc2)cc1 [Example 284]
